Where two headings read alike, the source gives them in different places.
How the values were obtained:
Test in all cases: MIC of included and free biocides on agar
Type in all cases: cell-based
Details in all cases: for MIC: read-out: MIC of included and free biocides
Candida albicans (yeast) = test system: Candida albicans (yeast)
Procedure: (§1) The spectrum of activity of the individual biocide inclusion complexes was determined on bacteria (gram-positive and gram-negative strains), yeasts and fungi (see Table 1). The values are stated as MIC values (=minimum inhibitory concentration) in mg/ml.
(§2) The determination of the growth of the microorganisms was carried out on M121 medium (Sabouraud, 2% maltose nutrient agar (Merck)) for yeasts and fungi and on M130 medium (standard I nutrient agar (Merck)) for bacteria after 72 hours at 28° C. The amount of active substance in the CD inclusion compounds is less than 10%.

[1] = test system: Pseudomonas fluorescens (gram -)
Procedure: as §1, §2

[2] = test system: Staphylococcus aureus (gram +)
Procedure: as §1, §2

[3] = test system: Bacillus subtilis (gram +)
Procedure: as §1, §2

[4] = test system: Aspergillus oryzae (fungus)
Procedure: as §1, §2

[5] = test system: Escherichia coli (gram -)
Procedure: as §1, §2

[6] = M121 medium, 72 hours at 28° C., active substance in complexes <10%
[7] = M130 medium, 72 hours at 28° C., active substance in complexes <10%

Compound	MIC (Candida albicans (yeast); 72 h) [µg/mL]	MIC ([1]; 72 h) [µg/mL]	MIC ([2]; 72 h) [µg/mL]	MIC ([3]; 72 h) [µg/mL]	MIC ([4]; 72 h) [µg/mL]	MIC ([5]; 72 h) [µg/mL]	further results
1,2-benzisothiazolin-3-thion [Proxel]							MIC of included and free biocides (Candida albicans (yeast); [6]): 40 µg/mL; MIC of included and free biocides [1, 7]: < 40 µg/mL; MIC of included and free biocides [2, 7]: < 40 µg/mL; MIC of included and free biocides [3, 7]: < 40 µg/mL; MIC of included and free biocides [4, 6]: 75 µg/mL; MIC of included and free biocides [5, 7]: < 40 µg/mL
CNC(=O)c1ccccc1SSc1ccccc1C(=O)NC [Densil P, dithio-2,2'-bis(benzmethylamide)]							MIC (Candida albicans (yeast); [6]): 600 µg/mL; MIC [1, 7]: 300 µg/mL; MIC [2, 7]: < 40 µg/mL; MIC [3, 7]: < 40 µg/mL; MIC [4, 6]: < 40 µg/mL; MIC [5, 7]: 75 µg/mL
N#CSCSC#N [methylenebisthiocyanate]	20	< 40	17.5	75	20	< 40	
Oc1ccccc1-c1ccccc1 [o-phenylphenol]	600	1250	1250	1250	300	1250	

— patent publication US5506216A, “Cyclodextrin-biocide complex” (Boehringer Mannheim GmbH, priority 1993, dated 1996)
